From PubChem BioAssay (NCI)
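Briefly, cells in 96-well plates were exposed to five compound concentrations for 48 h, and endpoints were estimated by linear interpolation. Here, GI50 denotes the concentration required for 50% inhibition of growth. TGI denotes the concentration required for complete inhibition of growth.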

Legend:
Assay in all cases: NCI-60 cell line screen, 48 h
[1] = system: HT29 colon
[2] = system: HCT-15 colon
[3] = system: SF-539 CNS
[4] = system: TK-10 renal
[5] = system: UACC-62 melanoma
[6] = system: 786-0 renal
[7] = system: SK-OV-3 ovarian
[8] = system: COLO 205 colon
[9] = system: HL-60(TB) leukemia
[10] = system: UO-31 renal

COCCn1cc(-c2nc(-c3cc4cccnc4[nH]3)cs2)c2cc(OC)ccc21
GI50 [1]: 3.71 µM
TGI [1]: > 81.2 µM
GI50 [2]: 2.26 µM
TGI [2]: 21.5 µM
GI50 [3]: 3.39 µM
TGI [3]: 42 µM
GI50 [4]: 1.07 µM
TGI [4]: 10.7 µM
GI50 [5]: 4.22 µM
TGI [5]: 31.3 µM
GI50 [6]: 3.04 µM
TGI [6]: 20.9 µM
GI50 [7]: 3.04 µM
TGI [7]: 11.6 µM
GI50 [8]: 4.01 µM
TGI [8]: 24.7 µM
GI50 [9]: 2.95 µM
TGI [9]: 13.3 µM
GI50 [10]: 1.84 µM
TGI [10]: 11 µM

NC(=S)N/N=C\c1nccc2c(C(F)(F)F)cccc12
GI50 [1]: 0.524 µM
TGI [1]: 16.5 µM
GI50 [2]: 0.315 µM
TGI [2]: 19.2 µM
GI50 [3]: 0.243 µM
TGI [3]: 0.857 µM
GI50 [4]: 0.516 µM
TGI [4]: 32.1 µM
GI50 [5]: 0.283 µM
TGI [5]: 1.15 µM
GI50 [6]: 0.3 µM
TGI [6]: 0.957 µM
GI50 [7]: 0.17 µM
TGI [7]: 5.89 µM
GI50 [8]: 0.237 µM
TGI [8]: 10.8 µM
GI50 [9]: 0.286 µM
TGI [9]: 1.19 µM
GI50 [10]: 0.245 µM
TGI [10]: 3.11 µM

OC(c1cc(C(F)(F)F)nc2c(C(F)(F)F)cccc12)C1CCCCN1 (stereo not given)
GI50 [1]: 1.99 µM
TGI [1]: 3.92 µM
GI50 [2]: 3.51 µM
TGI [2]: 10.9 µM
GI50 [3]: 2.72 µM
TGI [3]: 6.34 µM
GI50 [4]: 1.8 µM
TGI [4]: 3.43 µM
GI50 [5]: 1.89 µM
TGI [5]: 4.47 µM
GI50 [6]: 1.88 µM
TGI [6]: 3.77 µM
GI50 [7]: 1.95 µM
TGI [7]: 4.32 µM
GI50 [8]: 1.83 µM
TGI [8]: 3.3 µM
GI50 [9]: 2.46 µM
TGI [9]: 4.6 µM
GI50 [10]: 2.63 µM
TGI [10]: 12.3 µM

COc1ccc(C(c2cc(OC)c(OC)c(OC)c2)n2cncn2)cc1O (stereo not given)
GI50 [1]: 0.33 µM
TGI [1]: 1.9 µM
GI50 [2]: 0.438 µM
TGI [2]: > 100 µM
GI50 [3]: 0.3 µM
TGI [3]: 1.11 µM
GI50 [4]: > 100 µM
TGI [4]: > 100 µM
GI50 [5]: 0.55 µM
TGI [5]: > 100 µM
GI50 [6]: 0.474 µM
TGI [6]: > 100 µM
GI50 [7]: 0.402 µM
TGI [7]: > 100 µM
GI50 [8]: 0.332 µM
TGI [8]: 1.54 µM
GI50 [9]: 0.261 µM
TGI [9]: 0.687 µM
GI50 [10]: 0.903 µM
TGI [10]: > 100 µM

NCCNCCNCCN
GI50 [1]: > 100 µM
TGI [1]: > 100 µM
GI50 [2]: > 100 µM
TGI [2]: > 100 µM
GI50 [3]: > 100 µM
TGI [3]: > 100 µM
GI50 [4]: > 100 µM
TGI [4]: > 100 µM
GI50 [5]: > 100 µM
TGI [5]: > 100 µM
GI50 [6]: > 100 µM
TGI [6]: > 100 µM
GI50 [7]: > 100 µM
TGI [7]: > 100 µM
GI50 [8]: > 100 µM
TGI [8]: > 100 µM
GI50 [9]: > 100 µM
TGI [9]: > 100 µM
GI50 [10]: > 100 µM
TGI [10]: > 100 µM

COc1c2ccccc2c(OC)c2[nH]c(=O)ccc12
GI50 [1]: 4.66 µM
TGI [1]: > 57 µM
GI50 [2]: 1.78 µM
TGI [2]: 4.53 µM
GI50 [3]: 4.19 µM
TGI [3]: > 36.5 µM
GI50 [4]: 51.2 µM
TGI [4]: > 100 µM
GI50 [5]: 1.65 µM
TGI [5]: 3.33 µM
GI50 [6]: 56.1 µM
TGI [6]: > 100 µM
GI50 [7]: 65.1 µM
TGI [7]: > 100 µM
GI50 [8]: 4.3 µM
TGI [8]: 14.9 µM
GI50 [9]: 12.4 µM
TGI [9]: > 92.4 µM
GI50 [10]: 8.13 µM
TGI [10]: 97.3 µM

COc1cc(-c2nc3sccn3c2-c2ccnc(NCCNS(=O)(=O)c3ccc(F)cc3)n2)ccc1F
GI50 [1]: 1.64 µM
TGI [1]: > 100 µM
GI50 [2]: 2.33 µM
TGI [2]: > 100 µM
GI50 [3]: 4.86 µM
TGI [3]: > 100 µM
GI50 [4]: 6.27 µM
TGI [4]: > 100 µM
GI50 [5]: 0.688 µM
TGI [5]: 2.55 µM
GI50 [6]: 0.503 µM
TGI [6]: > 100 µM
GI50 [7]: 3.26 µM
TGI [7]: > 100 µM
GI50 [8]: 1.98 µM
TGI [8]: > 100 µM
GI50 [9]: 3.4 µM
TGI [9]: > 100 µM
GI50 [10]: 1.29 µM
TGI [10]: > 100 µM
